Laboratory results reported in BindingDB's records for doi:10.1007/s00044-005-0131-1 (Universite De Lille, 2005).
Values joined by “and” are separate entries in the source; they are usually repeats but may differ in a detail not shown here. Equal values may be shown once.

Target: Sigma non-opioid intracellular receptor 1 (Cavia porcellus, UniProt Q60492)
Test: Binding Assay
Text: Binding assay using sigma receptors.

Sequence of Sigma non-opioid intracellular receptor 1 (Q60492 whole entry): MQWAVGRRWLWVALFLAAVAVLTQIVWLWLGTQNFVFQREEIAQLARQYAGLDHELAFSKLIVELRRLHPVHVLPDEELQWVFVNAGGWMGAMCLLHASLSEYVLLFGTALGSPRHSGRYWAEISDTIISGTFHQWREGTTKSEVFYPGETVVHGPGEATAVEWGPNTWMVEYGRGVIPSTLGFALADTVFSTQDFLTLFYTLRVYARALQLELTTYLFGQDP

Ki	SMILES
> 1000 nM	CCCc1ccc2c(c1)sc(=O)n2CCN1C[C@]2(C)CCC[C@]2(C)C1 [3-{2-[(3aR,6aS)-3a,6a-dimethyl-octahydrocyclopenta[c]pyrrol-2-yl]ethyl}-6-propyl-2,3-dihydro-1,3-benzothiazol-2-one, 13]
2.9 nM and 13 nM	C=C(CC)c1ccc2c(c1)sc(=O)n2CCCCN1CCCCC1 [6-(but-1-en-2-yl)-3-[4-(piperidin-1-yl)butyl]-2,3-dihydro-1,3-benzothiazol-2-one, 12]
